US11033624B2, “Medical item for prevention and treatment of ear infection” (Novaflux Inc., priority 2010, dated 2021)

Assay: Thermogravimetric analysis weight loss
Format: physicochemical
Details: 250° C., pure state, heating rate 10° C./min
Protocol: An anti-biotic agent was selected consisting of ciprofloxacin betaine crystalline powder (C.A.S. Registry No. 85721-33-1). Ciprofloxacin is a broad spectrum antimicrobial agent having less than 1 percent weight loss at a temperature of 250° C. when measured in a pure state by thermogravimetric analysis at a heating rate of 10° C./min. The ciprofloxacin melted over a temperature range of 252° C. to 271° C.

weight loss by thermogravimetric analysis: less than 1%
Structure (SMILES): O=C(O)c1cn(C2CC2)c2cc(N3CCNCC3)c(F)cc2c1=O [Ciprofloxacin, ciprofloxacin betaine]
